Data reported in US5830885A, “Antiproliferative vitamin D3 hybrids” (The Johns Hopkins University, priority 1996, dated 1998).
pIC50: −log10 of the molar value. “Also recorded” adds a separate entry of the source.

Experiments:
calf thymus VDR = molecular target: T1, calf thymus VDR (Bos taurus, UniProt Q28037); assay: VDR binding assay, displacement of [^3 H]-1,25(OH)2 D3 from VDR; conditions: for Amount Bound (amount that results in 50% displacement of [^3 H]-1,25(OH)2 D3 from VDR): Table 3, calf thymus VDR
T1 construct: from the calf thymus VDR; from tissue; host or cells: calf thymus
T1 sequence (Q28037 1-426): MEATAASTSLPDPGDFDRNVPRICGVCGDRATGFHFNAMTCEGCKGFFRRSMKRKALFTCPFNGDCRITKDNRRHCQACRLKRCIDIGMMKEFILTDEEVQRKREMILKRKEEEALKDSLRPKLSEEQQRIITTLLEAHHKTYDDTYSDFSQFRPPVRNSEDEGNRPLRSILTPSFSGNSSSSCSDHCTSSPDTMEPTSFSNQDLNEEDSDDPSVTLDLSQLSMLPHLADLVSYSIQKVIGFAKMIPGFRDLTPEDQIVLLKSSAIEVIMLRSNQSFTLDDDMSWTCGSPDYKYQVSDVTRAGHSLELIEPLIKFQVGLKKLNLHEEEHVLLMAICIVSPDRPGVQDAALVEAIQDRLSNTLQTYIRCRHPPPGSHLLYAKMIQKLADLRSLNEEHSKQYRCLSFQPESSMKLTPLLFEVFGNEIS
Experimental: The VDR binding assay was performed according to the procedure of Reinhardt, T. A., Horst, R. L., Orf, J. W., Hollis, B. W., J. Clin. Endocrin. Metab., 58: 91-98 (1984), the entire contents of which are hereby incorporated herein by reference.

keratinocyte = assay: Dose-response effects on keratinocyte proliferation (FIGS. 3, 4, 9, 10); assay type: cell-based; conditions: cell numbers at 0 and 96 hours
Experimental: N0 represents the number of cells at zero hours and N1 represents the number of cells at 96 hours.

MDA 468 cells = assay: Thymidine incorporation by MDA 468 human breast cancer cells; assay type: cell-based; conditions: FIGS. 6A and 6B
From the text: (§1) FIGS. 6A and 6B show a comparison of the effects of 1,25(OH)2 D3 (filled squares), YA (filled circles) and YB (filled triangles) on thymidine incorporation by human breast cancer cell lines MDA 468 and SKBr 3.

calcium channels = assay: Calcium channel opening assay; assay type: cell-based
U 937 cancer cells [1] = assay: Inhibition of cell proliferation in U 937 cancer cells (Table 5); assay type: cell-based, human; conditions: for pIC50: Homo sapiens, U 937 cells; for inhibiting cell proliferation (in words): U 937, YB vs 1,25(OH)2 D3, YA up to 10^-7 M
U 937 cancer cells [2] = assay: Induction of cell differentiation in U 937 cancer cells (Table 5); assay type: cell-based, human
U 937 cancer cells [3] = assay: Viability of U 937 cancer cells (Table 5); assay type: cell-based; conditions: Homo sapiens, at 10^-7 M, read-out: Viability
[4] = Solubility in organic solvents; assay type: physicochemical; conditions: methylene chloride, chloroform, methanol; for YA/YB also EtOAc, acetone
cell differentiation = assay: Induction of differentiation (ratings of Table 2); assay type: cell-based; conditions: for differentiation inducing activity: compared with calcitriol
cell proliferation [5] = assay: Anti-proliferative activity (summary statements); assay type: cell-based; conditions: compared with calcitriol or in general words
HL-60 cells = conditions: relative to 1,25D3; cited from earlier work
[6] = system: Human lymphoma cells U 937; conditions: relative to calcitriol = 1; cited from earlier work
[7] = system: Human lymphoma cells U 937; conditions: relative to calcitriol = 1; cited from earlier work; remark: listed apart in the source
Lewis rats = conditions: relative to calcitriol = 1; cited from earlier work
[8] = system: RWLeu-4 human CML cell line; assay: Proliferation of RWLeu-4 human chronic myelogenous leukemic cells; assay type: cell-based; conditions: even at 50 nM; FIG. 5
From the text: MCW-II5-y-A is compound YA and MCW-II5-y-B is compound YB.

[9] = system: human breast cancer cell lines MDA 468 and SKBr 3; assay: Thymidine incorporation by human breast cancer cell lines; assay type: cell-based; conditions: human breast cancer cells; FIGS. 6A and 6B
From the text: as §1

cell proliferation [10] = assay: Inhibition of proliferation (ratings of Table 2); assay type: cell-based; conditions: Table 2 rating

| Amount Bound (amount that results in 50% displacement of [^3 H]-1,25(OH)2 D3 from VDR) (calf thymus VDR) [µg] | pIC50 (U 937 cancer cells [1]) | solubility in organic solvents [4] | SMILES | effect on keratinocyte proliferation (keratinocyte) | Average peak shift compared to control (calcium channels; 0.05 nM) [mV] | Average peak shift compared to control (calcium channels; 0.5 nM) [mV] | Average peak shift compared to control (calcium channels; 5 nM) [mV] | Average peak shift compared to control (calcium channels; 50 nM) [mV] | inhibiting cell proliferation (in words) (U 937 cancer cells [1]) | viability at 0.1 µM (U 937 cancer cells [3]) [%] | differentiation inducing activity (cell differentiation) | further results |
| --- | --- | --- | --- | --- | --- | --- | --- | --- | --- | --- | --- | --- |
| 2.2 | < 7.00 | sparingly soluble | C=C1/C(=C\C=C2/CCC[C@]3(C)[C@@H]([C@@H](C)OCCCC(O)(CC)CC)CC[C@@H]23)C[C@@H](O)C[C@@H]1CO [YA, 22-oxa-1-(hydroxymethyl)-26-(hydroxydiethyl) vitamin D3] | not effective for inhibition of proliferation | 1.0 ± 0.1 | 10.8 ± 1.5 | 16.1 ± 4.1 | 18.6 ± 3.3 | ineffective | 99 | relatively ineffective in inducing differentiation | VDR binding (in words) (calf thymus VDR): even weaker binding for VDR than YB; also recorded: low VDR binding; inhibition of growth (suppression of thymidine incorporation) (MDA 468 cells): appears to have no effect; inducing cell differentiation (in words) (U 937 cancer cells [2]; at 10^-7 M): inactive; anti-proliferative activity (cell proliferation [5]): relatively ineffective in inducing differentiation or inhibiting proliferation |
|  |  |  | C=C1/C(=C\C=C2/CCC[C@]3(C)[C@@H]([C@@H](C)OCCCC(O)(CC)CC)CC[C@@H]23)C[C@@H](O)C[C@@H]1O [KH-1060] |  |  |  |  |  |  |  |  | times as effective as 1,25D3 in the induction of leukemic cell (HL-60) differentiation (HL-60 cells): 133 times; Relative Potency, Inhibition of Proliferation [6]: 31,000; Relative Potency, Induction of Differentiation [7]: 100,000; Relative Potency, Calcemic Effects (Lewis rats): 1.3 |
| 0.0295 | 7.22 | sparingly soluble | C=C1/C(=C\C=C2/CCC[C@]3(C)[C@@H]([C@@H](C)OCCCC(O)(CC)CC)CC[C@@H]23)C[C@H](O)C[C@H]1CO [YB, 22-oxa-1-(hydroxymethyl)-26-(hydroxydiethyl) vitamin D3] | comparable to that of calcitriol | 3.6 ± 2.2 | 13.2 ± 2.8 | 16.6 ± 2.8 | 18.4 ± 2.1 | about one third as active | 99 | comparable to that of calcitriol | times less strongly bound to VDR than 1,25(OH)2 D3 (calf thymus VDR; relative to 1,25(OH)2 D3): about 1300 times; anti-proliferative effect on RWLeu-4 cells [8]: comparable to or slightly greater than that of calcitriol; inhibition of growth (suppression of thymidine incorporation) [9]: very comparable to calcitriol; inducing cell differentiation (in words) (U 937 cancer cells [2]; at a concentration of 10^-8 M): effective in inducing cell differentiation; Inhibition of Proliferation (rating) (cell proliferation [10]): 1; Induction of Differentiation (rating) (cell differentiation; Table 2 rating): 1 |
